# Assay results reported in BindingDB's records for doi:10.1016/j.bmcl.2009.08.022 (Roche Palo Alto, 2009).
# Target: Genome polyprotein (Hepatitis C virus genotype 1b (isolate Con1), UniProt Q9WMX2)
# Assay: Inhibition of […] con1 NS5B polymerase assessed as [3H]UTP incorporation into acid insoluble RNA product
# Sequence of Genome polyprotein (Q9WMX2 2420-3010 limits assumed): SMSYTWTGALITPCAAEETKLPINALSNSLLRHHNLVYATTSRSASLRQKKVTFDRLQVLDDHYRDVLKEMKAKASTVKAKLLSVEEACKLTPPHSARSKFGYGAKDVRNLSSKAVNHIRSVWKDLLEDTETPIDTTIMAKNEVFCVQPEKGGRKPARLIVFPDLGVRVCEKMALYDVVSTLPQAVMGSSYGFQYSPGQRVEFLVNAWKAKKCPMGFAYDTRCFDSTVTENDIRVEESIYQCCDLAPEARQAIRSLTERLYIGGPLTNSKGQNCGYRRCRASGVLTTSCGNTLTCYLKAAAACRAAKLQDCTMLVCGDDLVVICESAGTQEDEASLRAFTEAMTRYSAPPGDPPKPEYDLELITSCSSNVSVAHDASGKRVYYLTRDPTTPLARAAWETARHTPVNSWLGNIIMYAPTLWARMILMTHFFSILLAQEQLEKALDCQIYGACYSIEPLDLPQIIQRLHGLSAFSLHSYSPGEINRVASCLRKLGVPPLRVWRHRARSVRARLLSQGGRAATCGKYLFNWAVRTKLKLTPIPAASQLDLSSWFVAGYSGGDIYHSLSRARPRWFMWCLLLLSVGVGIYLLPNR
row,IC50 [nM],SMILES
1,3,"CC(C)(C)[C@H]1C(=O)C(C2NS(=O)(=O)c3c(C=NS(N)(=O)=O)cccc32)C(=O)N1Cc1ccc(F)cc1 (stereo partly drawn) [N-({3-[(5S)-5-tert-butyl-1-[(4-fluorophenyl)methyl]-4-hydroxy-2-oxo-2,5-dihydro-1H-pyrrol-3-yl]-1,1-dioxo-{6},2-benzothiazol-7-yl}methyl)aminosulfonamide]"
2,3,"Cc1cc(CN2C(=O)C(C3NS(=O)(=O)c4c(C=NS(N)(=O)=O)cccc43)C(=O)[C@@H]2C(C)(C)C)ccc1F (stereo partly drawn) [N-({3-[(5S)-5-tert-butyl-1-[(4-fluoro-3-methylphenyl)methyl]-4-hydroxy-2-oxo-2,5-dihydro-1H-pyrrol-3-yl]-1,1-dioxo-{6},2-benzothiazol-7-yl}methyl)aminosulfonamide]"
3,5,"CC(C)(C)[C@H]1C(=O)C(=C2NS(=O)(=O)c3c(NS(C)(=O)=O)cccc32)C(=O)N1Cc1ccc(F)cc1 [N-{3-[(S)-5-tert-Butyl-1-(4-fluoro-benzyl)-4-hydroxy-2-oxo-2,5-dihydro-1H-pyrrol-3-yl]-1,1-dioxo-1H-1lambda*6*-benzo[d]isothiazol-7-yl}-methanesulfonamide]"

# Further lines, the compound ahead of its results:
row,SMILES,IC50 [nM]
1,"CC(C)(C)[C@H]1C(=O)C(=C2NS(=O)(=O)c3c(CCS(C)(=O)=O)cccc32)C(=O)N1Cc1ccc(F)cc1 [(S)-5-tert-Butyl-1-(4-fluoro-benzyl)-4-hydroxy-3-[7-(2-methanesulfonyl-ethyl)-1,1-dioxo-1H-1lambda*6*-benzo[d]isothiazol-3-yl]-1,5-dihydro-pyrrol-2-one]",4
2,"Cc1cc(CN2C(=O)C(=C3NS(=O)(=O)c4c(CN(C)S(C)(=O)=O)cccc43)C(=O)[C@@H]2C(C)(C)C)ccc1F [N-{3-[(S)-5-tert-Butyl-1-(4-fluoro-3-methyl-benzyl)-4-hydroxy-2-oxo-2,5-dihydro-1H-pyrrol-3-yl]-1,1-dioxo-1H-1lambda*6*-benzo[d]isothiazol-7-ylmethyl}-N-methyl-methanesulfonamide]",5
3,"Cc1cc(CN2C(=O)C(=C3NS(=O)(=O)c4c(CNS(C)(=O)=O)cccc43)C(=O)[C@@H]2C(C)(C)C)ccc1F [N-{3-[(S)-5-tert-Butyl-1-(4-fluoro-3-methyl-benzyl)-4-hydroxy-2-oxo-2,5-dihydro-1H-pyrrol-3-yl]-1,1-dioxo-1H-1lambda*6*-benzo[d]isothiazol-7-ylmethyl}-methanesulfonamide]",4
